pEC50: −log10 of the molar value. Read-outs that look alike come from different tables or passages of the source.
Tests used:
[1] = tested on: pancreatic cancer (8 cell lines); test: CellTiter-Glo Viability Assay, pancreatic cancer; format: cell-based; details: Homo sapiens, inhibition of cancer cell proliferation
CAMA1 = test: CellTiter-Glo Viability Assay, breast cancer; format: cell-based; details: Homo sapiens, CAMA-1, 96 h; CAMA1, breast cancer, four days; read-out: EC50
HCC1599 = test: CellTiter-Glo Viability Assay, breast cancer; format: cell-based; details: Homo sapiens, 96 h; HCC1599, breast cancer, four days; read-out: EC50
MDA-MB-231-Luc = test: CellTiter-Glo Viability Assay, breast cancer; format: cell-based; details: Homo sapiens, 96 h; MDA-MB-231-Luc, breast cancer, four days; read-out: EC50
T47D = test: CellTiter-Glo Viability Assay, breast cancer; format: cell-based; details: Homo sapiens, 96 h, breast cancer, four days, read-out: EC50
DU4475 = test: CellTiter-Glo Viability Assay, breast cancer; format: cell-based; details: Homo sapiens, DU-4475, 96 h; DU4475, breast cancer, four days; read-out: EC50
ZR-75-1 = test: CellTiter-Glo Viability Assay, breast cancer; format: cell-based; details: Homo sapiens, 96 h; ZR-75-1, breast cancer, four days; read-out: EC50
MCF7 = test: CellTiter-Glo Viability Assay, breast cancer; format: cell-based; details: Homo sapiens, 96 h; MCF7, breast cancer, four days; read-out: EC50
BT-549 = test: CellTiter-Glo Viability Assay, breast cancer; format: cell-based; details: Homo sapiens, 96 h; BT-549, breast cancer, four days; read-out: EC50
[2] = tested on: haematopoietic & lymphoid tumors (13 cell lines); test: CellTiter-Glo Viability Assay, haematopoietic & lymphoid tumors; format: cell-based; details: Homo sapiens, inhibition of cancer cell proliferation
CLK2 = target: T1, CLK2 (Homo sapiens, UniProt P49760); test: CLK2 kinase activity assay (Z-lyte, Ser/Thr 6 peptide); format: biochemical; details: recombinant CLK2 kinase, ATP 60 μM; read-out: EC50
T1 construct: purchased Thermo Fisher (Life Technologies), Z'-LYTE Kinase Assay Kits
Description: All reactions were performed in duplicate.

all 50 cell lines = test: CellTiter-Glo Viability Assay, average across all cell lines; format: cell-based; details: Homo sapiens; across all 50 cell lines; read-out: average EC50 for inhibition of cancer cell proliferation
Procedure, shortened: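 Proliferation of a multi-tissue human cancer line panel is assessed over four days at 37° C and 5% CO2, seeding 300-3,000 cells/well. Viability is quantified by CellTiter-Glo luminescence, and EC50 values are calculated.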

[3] = tested on: lung cancer (4 cell lines); test: CellTiter-Glo Viability Assay, lung cancer; format: cell-based; details: Homo sapiens, inhibition of cancer cell proliferation
[4] = tested on: liver cancer (3 cell lines); test: CellTiter-Glo Viability Assay, liver cancer; format: cell-based; details: Homo sapiens, inhibition of cancer cell proliferation
[5] = tested on: colorectal cancer (6 cell lines); test: CellTiter-Glo Viability Assay, colorectal cancer; format: cell-based; details: Homo sapiens, inhibition of cancer cell proliferation
[6] = tested on: ovarian cancer (4 cell lines); test: CellTiter-Glo Viability Assay, ovarian cancer; format: cell-based; details: Homo sapiens, inhibition of cancer cell proliferation
[7] = tested on: prostate cancer (5 cell lines); test: CellTiter-Glo Viability Assay, prostate cancer; format: cell-based; details: Homo sapiens
[8] = DND41, DND-41 cell line, read-out: Haematopoietic & Lymphoid tumors, EC50 (μM) DND-41
[9] = MV4-11, MV-4-11 cell line, read-out: Haematopoietic & Lymphoid tumors, EC50 (μM) MV-4-11
[10] = Rec1, REC-1 cell line, read-out: Haematopoietic & Lymphoid tumors, EC50 (μM) REC-1
[11] = SU-DHL-4, SUDHL4 cell line, read-out: Haematopoietic & Lymphoid tumors, EC50 (μM) SUDHL4
[12] = HL-60 cell line, read-out: Haematopoietic & Lymphoid tumors, EC50 (μM) HL-60
[13] = JM1 cell line, read-out: Haematopoietic & Lymphoid tumors, EC50 (μM) JM1
[14] = JURKAT, Clone E6-1 cell line, read-out: Haematopoietic & Lymphoid tumors, EC50 (μM) JURKAT, Clone E6-1
[15] = JeKo-1 cell line, read-out: Haematopoietic & Lymphoid tumors, EC50 (μM) JeKo-1
[16] = KASUMI-1 cell line, read-out: Haematopoietic & Lymphoid tumors, EC50 (μM) KASUMI-1
[17] = Loucy cell line, read-out: Haematopoietic & Lymphoid tumors, EC50 (μM) Loucy
[18] = MOLT-4 cell line, read-out: Haematopoietic & Lymphoid tumors, EC50 (μM) MOLT-4
[19] = TF-1 cell line, read-out: Haematopoietic & Lymphoid tumors, EC50 (μM) TF-1
[20] = TOLEDO cell line, read-out: Haematopoietic & Lymphoid tumors, EC50 (μM) TOLEDO
[21] = A-427, A427 cell line, read-out: Lung cancer, EC50 (μM) A427
[22] = HCC78, HCC-78 cell line, read-out: Lung cancer, EC50 (μM) HCC-78
[23] = NCI-H460 cell line, read-out: Lung cancer, EC50 (μM) NCI-H460
[24] = NCI-H522 cell line, read-out: Lung cancer, EC50 (μM) NCI-H522
[25] = SNU-398, SNU398 cell line, read-out: Liver cancer, EC50 SNU398
[26] = HEPG2 cell line, read-out: Liver cancer, EC50 HEPG2
[27] = PLC/PRF/5 cell line, read-out: Liver cancer, EC50 PLC/PRF/5
[28] = HCT-116, HCT116 cell line, read-out: Colorectal cancer, EC50 (μM) HCT116
[29] = HT-29, HT29 cell line, read-out: Colorectal cancer, EC50 (μM) HT29
[30] = SW-620, SW620 cell line, read-out: Colorectal cancer, EC50 (μM) SW620
[31] = DLD-1 cell line, read-out: Colorectal cancer, EC50 (μM) DLD-1
[32] = SW48 cell line, read-out: Colorectal cancer, EC50 (μM) SW48
[33] = SW480 cell line, read-out: Colorectal cancer, EC50 (μM) SW480
[34] = PA-1, PA1 cell line, read-out: Ovarian cancer, EC50 (μM) PA1
[35] = TOV112D, TOV-112D cell line, read-out: Ovarian cancer, EC50 (μM) TOV-112D
[36] = OV-90 cell line, read-out: Ovarian cancer, EC50 (μM) OV-90
[37] = OVCAR-3 cell line, read-out: Ovarian cancer, EC50 (μM) OVCAR-3
[38] = DU-145, read-out: Prostate cancer EC50 Du-145
[39] = PC-3, PC3 cell line, inhibition of cancer cell proliferation, read-out: Prostate cancer EC50 PC3
[40] = 22Rv1 cell line, inhibition of cancer cell proliferation, read-out: Prostate cancer EC50 22Rv1
[41] = LNCap clone FGC cell line, inhibition of cancer cell proliferation, read-out: Prostate cancer EC50 LNCap clone FGC
[42] = VCaP (Sigma) cell line, inhibition of cancer cell proliferation, read-out: Prostate cancer EC50 VCaP (Sigma)

T1 sequence (P49760 whole entry): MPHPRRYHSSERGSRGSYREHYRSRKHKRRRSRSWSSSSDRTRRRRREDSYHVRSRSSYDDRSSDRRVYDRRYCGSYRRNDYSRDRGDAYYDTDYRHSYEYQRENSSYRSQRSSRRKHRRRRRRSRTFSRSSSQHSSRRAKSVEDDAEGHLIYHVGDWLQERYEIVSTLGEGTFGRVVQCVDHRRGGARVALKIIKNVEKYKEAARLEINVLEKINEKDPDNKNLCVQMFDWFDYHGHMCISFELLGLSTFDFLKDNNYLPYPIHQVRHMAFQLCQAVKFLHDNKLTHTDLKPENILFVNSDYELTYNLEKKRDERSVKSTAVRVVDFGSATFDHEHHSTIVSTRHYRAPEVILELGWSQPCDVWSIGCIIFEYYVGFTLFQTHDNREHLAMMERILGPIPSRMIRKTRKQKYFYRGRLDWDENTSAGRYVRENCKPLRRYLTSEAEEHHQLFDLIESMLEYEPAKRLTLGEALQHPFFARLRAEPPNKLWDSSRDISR

## CN1CCCn2cc(nn2)-c2nccc3[nH]c(nc23)-c2n[nH]c3ccc(cc23)-c2cncc(c2)C1 [Compound 57]
[1]; BXPC-3, BxPC3 cell line, read-out: Pancreatic cancer, EC50 BxPC3
  pEC50: 5.14
[1]; CAPAN-1, Capan1 cell line, read-out: Pancreatic cancer, EC50 Capan1
  pEC50: < 5.00
[1]; Capan-2, Capan2 cell line, read-out: Pancreatic cancer, EC50 Capan2
  pEC50: < 5.00
[1]; MIA PaCa-2 cell line, read-out: Pancreatic cancer, EC50 MIA PaCa-2
  pEC50: 5.17
[1]; PANC 05.04 cell line, read-out: Pancreatic cancer, EC50 PANC 05.04
  pEC50: < 5.00
[1]; PANC-1 cell line, read-out: Pancreatic cancer, EC50 PANC-1
  pEC50: < 5.00
[1]; UPAFII cell line, read-out: Pancreatic cancer, EC50 UPAFII
  pEC50: < 5.00
CAMA1
  pEC50: < 5.00
HCC1599
  pEC50: 5.66
MDA-MB-231-Luc
  pEC50: < 5.00
T47D
  pEC50: < 5.00
DU4475
  pEC50: 5.78
ZR-75-1
  pEC50: < 5.00
MCF7
  pEC50: < 5.00
BT-549
  pEC50: 5.24
[2]; [8]
  EC50: 2.38 µM
[2]; [9]
  EC50: 0.188 µM
[2]; [10]
  EC50: 6.85 µM
[2]; [11]
  EC50: 0.953 µM
[2]; [12]
  EC50: 3.13 µM
[2]; [13]
  EC50: 1.68 µM
[2]; [14]
  EC50: > 10 µM
[2]; [15]
  EC50: 0.917 µM
[2]; [16]
  EC50: 9.46 µM
[2]; [17]
  EC50: 1.71 µM
[2]; [18]
  EC50: > 10 µM
[2]; [19]
  EC50: 4.32 µM
[2]; [20]
  EC50: 1.85 µM
CLK2
  pEC50: 8.55
All 50 cell lines
  pEC50: 5.14
[3]; [21]
  EC50: 7.79 µM
[3]; [22]
  EC50: > 10 µM
[3]; [23]
  EC50: > 10 µM
[3]; [24]
  EC50: 7.58 µM
[4]; [25]
  pEC50: 5.47
[4]; [26]
  pEC50: < 5.00
[4]; [27]
  pEC50: < 5.00
[5]; [28]
  EC50: > 10 µM
[5]; [29]
  EC50: > 10 µM
[5]; [30]
  EC50: 7.7 µM
[5]; [31]
  EC50: > 10 µM
[5]; [32]
  EC50: 2.03 µM
[5]; [33]
  EC50: > 10 µM
[6]; [34]
  EC50: > 10 µM
[6]; [35]
  EC50: > 10 µM
[6]; [36]
  EC50: > 10 µM
[6]; [37]
  EC50: 3.89 µM
[7]; [38]
  pEC50: < 5.00
[7]; [39]
  pEC50: 5.08
[7]; [40]
  pEC50: 5.16
[7]; [41]
  pEC50: < 5.00
[7]; [42]
  pEC50: < 5.00

## Cn1cc(-c2ccc3cnc(NC(=O)c4ccc5c(c4)CNCC5)cc3c2)cn1 [Compound 74]
CAMA1
  pEC50: 6.16
HCC1599
  pEC50: 6.77
MDA-MB-231-Luc
  pEC50: 6.12
T47D
  pEC50: 6.00
DU4475
  pEC50: 6.52
ZR-75-1
  pEC50: 6.01
MCF7
  pEC50: 5.72
BT-549
  pEC50: 6.46
[2]; [8]
  EC50: 0.491 µM
[2]; [9]
  EC50: 0.076 µM
[2]; [10]
  EC50: 0.134 µM
[2]; [11]
  EC50: 0.376 µM
[2]; [12]
  EC50: 0.76 µM
[2]; [13]
  EC50: 0.135 µM
[2]; [14]
  EC50: 0.464 µM
[2]; [15]
  EC50: 0.157 µM
[2]; [16]
  EC50: 0.203 µM
[2]; [17]
  EC50: 0.241 µM
[2]; [18]
  EC50: 0.465 µM
[2]; [19]
  EC50: 0.673 µM
[2]; [20]
  EC50: 0.134 µM
CLK2
  pEC50: 8.72
All 50 cell lines
  pEC50: 6.30
[3]; [21]
  EC50: 0.355 µM
[3]; [22]
  EC50: 0.835 µM
[3]; [23]
  EC50: 0.574 µM
[3]; [24]
  EC50: 0.188 µM
[4]; [25]
  pEC50: 6.92
[4]; [26]
  pEC50: 6.15
[4]; [27]
  pEC50: 5.96
[5]; [28]
  EC50: 0.239 µM
[5]; [29]
  EC50: 0.52 µM
[5]; [30]
  EC50: 0.163 µM
[5]; [31]
  EC50: 0.215 µM
[5]; [32]
  EC50: 0.151 µM
[5]; [33]
  EC50: 0.313 µM
[6]; [34]
  EC50: 0.495 µM
[6]; [35]
  EC50: 0.229 µM
[6]; [36]
  EC50: 1.49 µM
[6]; [37]
  EC50: 0.195 µM
[7]; [38]
  pEC50: 6.26
[7]; [39]
  pEC50: 6.36
[7]; [40]
  pEC50: 6.46
[7]; [41]
  pEC50: 6.23
[7]; [42]
  pEC50: 6.08
